Reference: PMC12314110, “Evaluation of Potential Effects of CYP3A Inhibition and CYP3A Induction on the Pharmacokinetics of Fruquintinib in Healthy Subjects” (Clinical Pharmacology in Drug Development, 2025)

Experiments:
[1] = Safety assessments (adverse events) in healthy subjects; assay type: in vivo, human; settings: Part B, after rifampin alone (Treatment Period 2); back pain, 1/14 subjects, mild (Grade 1), unrelated to study treatment
Procedure: Safety was assessed by evaluation of adverse events (AEs), serious AEs, AEs of special interest, physical examinations, vital signs, single 12‐lead electrocardiograms and cardiac monitoring, and clinical laboratory data. All AEs were coded using the Medical Dictionary for Regulatory Activities Version 23.0, and their severity was graded using the National Cancer Institute Common Terminology Criteria for Adverse Events Version 5.0.

[2] = design: method as in PMID 9925057; settings: cited from earlier work

Structure (SMILES): CO[C@H]1/C=C/O[C@@]2(C)Oc3c(C)c(O)c4c(O)c(c(/C=N/N5CCN(C)CC5)c(O)c4c3C2=O)NC(=O)/C(C)=C\C=C\[C@H](C)[C@H](O)[C@@H](C)[C@@H](O)[C@@H](C)[C@H](OC(C)=O)[C@@H]1C [rifampin, reference compound]
- treatment‐emergent AE incidence [1]: 7.1%
- reduction of absorption when ingested with food [2]: approximately 30%
